Structures are written as SMILES.

The first assay has as its system HCV replicon. Kind of assay: Replicon based assay of HCV replication inhibition (NPT ELISA). The assay is classed as cell-based, Hepatitis C virus. The note with it: Hepatitis C virus, Huh-7, 72 h, Table I; Huh-7 HCV replicon-containing cells, three days; read-out: Activity. Put shortly:
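Huh-7 cells carrying a bicistronic HCV replicon (neo, EMCV-IRES-driven NS3–NS5B) treated overnight after seeding with usually 6 concentrations, 10 to 0.03 micromolar, for three days at 37° C without G418. Replication read as NPT level by captured ELISA; matched-DMSO wells and interferon alpha as controls.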
Background: In antiviral work, replicon cells carry a viral genome segment that copies itself.
With `CCCCCc1ccc(Nc2nc(-c3ccccc3Cl)cs2)cc1` [compound 186, 4-(2-chlorophenyl)-N-(4-pentylphenyl)thiazol-2-amine], the EC50 is more than 10 µM. Consider `c1ccc(N2CCC(Nc3nc(-c4cccnc4)cs3)=N2)cc1` [compound 143, 4,5-dihydro-1-phenyl-N-(4-(pyridin-3-yl)thiazol-2-yl)-1H-pyrazol-3-amine], for which the EC50 is more than 10 µM.

Regarding `Cc1sc(Nc2cccc(OCc3ccccc3)c2)nc1-c1ccc(CC(=O)O)cc1` [compound 192, 2-(4-(2-(3-(benzyloxy)phenylamino)-5-methylthiazol-4-yl)phenyl)acetic acid], the EC50 is less than 1 µM.

As to `FC(F)(F)Oc1ccc(CNc2nc(-c3cccnc3)cs2)cc1` [compound 77, N-(4-(trifluoromethoxy)benzyl)-4-(pyridin-3-yl)thiazol-2-amine], the EC50 is more than 10 µM. Still for that read-out and setting: in the case of `CCCCCOc1ccc(Nc2nc(C(=O)Nc3ccc(Cl)c(Cl)c3)cs2)cc1C(F)(F)F` [compound 128, 2-(3-(trifluoromethyl)-4-(pentyloxy)phenylamino)-N-(3,4-dichlorophenyl)thiazole-4-carboxamide] it was 1 to 10 µM; in that of `CCCCCOc1ccc(Nc2nc(-c3cccc(F)c3)cs2)cc1F` [compound 174, N-(3-fluoro-4-(pentyloxy)phenyl)-4-(3-fluorophenyl)thiazol-2-amine], less than 1 µM; in that of `c1ccc(Oc2ccc(CNc3nc(-c4cccnc4)cs3)cc2)cc1` [compound 80, N-(4-phenoxybenzyl)-4-(pyridin-3-yl)thiazol-2-amine], more than 10 µM. Turning to `CCCCCCCCc1ccc(Nc2nc(-c3cccnc3)cs2)cc1` [compound 95, N-(4-octylphenyl)-4-(pyridin-3-yl)thiazol-2-amine], the EC50 was less than 1 µM. Same read-out and setting: in the case of `Clc1ccc(-c2cc(-c3csc(Nc4cccc(OCc5ccccc5)c4)n3)on2)cc1Cl` [compound 194, N-(3-(benzyloxy)phenyl)-4-(3-(3,4-dichlorophenyl)isoxazol-5-yl)thiazol-2-amine] it was more than 10 µM. On to `CCCCCOc1ccc(N(C(=O)c2cccnc2)c2nc(NC(=O)c3cccnc3)cs2)cc1C(F)(F)F` [compound 140, N-(2-(N-(3-(trifluoromethyl)-4-(pentyloxy)phenyl)nicotinamido)-thiazol-4-yl)nicotinamide], for which the EC50 was less than 1 µM.

Still in this assay, the particulars now being: Hepatitis C virus, Huh-7, 72 h, Table III; Huh-7 HCV replicon-containing cells, three days; read-out: Activity.
Consider `CCCCCOc1ccc(Nc2nc3c(s2)CCc2ncccc2-3)cc1C(F)(F)F` [compound 594], for which the EC50 is less than 1 µM. As to `CCCCCCCCc1ccc(Nc2nc(-c3ccc(Cl)cc3)cs2)cc1` [compound 555, 4-(4-chlorophenyl)-N-(4-octylphenyl)thiazol-2-amine], the EC50 is less than 1 µM. `CCCCCCCCOc1ccc(Nc2nc(-c3ncccn3)cs2)cc1C(F)(F)F` [compound 681, N-(3-(trifluoromethyl)-4-(octyloxy)phenyl)-4-(pyrimidin-2-yl)thiazol-2-amine]: the EC50 is less than 1 µM.

For the compound `FC(F)(F)c1cc(Nc2nc(-c3cccnc3)cs2)ccc1N1CCC2CCCCC2C1` (stereo not drawn) [compound 698, N-(3-(trifluoromethyl)-4-(octahydroisoquinolin-2(1H)-yl)phenyl)-4-(pyridin-3-yl)thiazol-2-amine], the EC50 is less than 1 µM. For the compound `N#Cc1ccc(-c2csc(Nc3ccc(OC4CCCC4)c(C(F)(F)F)c3)n2)cn1` [compound 616, 5-(2-(4-(cyclopentyloxy)-3-(trifluoromethyl)phenylamino)thiazol-4-yl)pyridine-2-carbonitrile], the EC50 is less than 1 µM.

On to `Fc1ccc(-c2csc(Nc3ccc(OCC4CCCCC4)c(F)c3)n2)cn1` [compound 530, N-(4-(cyclohexylmethoxy)-3-fluorophenyl)-4-(6-fluoropyridin-3-yl)thiazol-2-amine], for which the EC50 was less than 1 µM. Still for that read-out and setting: in the case of `CCCCCCCCN(C)c1ccc(Nc2nc(-c3ccc(O)c(C(N)=O)c3)cs2)cc1C(F)(F)F` [compound 569, 5-(2-(4-(N-methyl-N-octylamino)-3-(trifluoromethyl)phenylamino)thiazol-4-yl)-2-hydroxybenzamide] it was less than 1 µM; in that of `CCCCCOc1ccc(Nc2nc(-c3cnc4ccccc4c3)cs2)cc1C(F)(F)F` [compound 538, N-(3-(trifluoromethyl)-4-(pentyloxy)phenyl)-4-(quinolin-3-yl)thiazol-2-amine], less than 1 µM. The same measure, in the same setting: to `CCCCCOc1ccc(Nc2nc(-c3ccc(C#N)nc3)cs2)cc1F` [compound 615, 5-(2-(3-fluoro-4-(pentyloxy)phenylamino)thiazol-4-yl)pyridine-2-carbonitrile] belongs less than 1 µM.

The assay is the same for the next values; noted with them: Hepatitis C virus, replicon based assay of HCV replication inhibition; Table II; read-out: Activity.
On to `CCCCCCCOc1ccc(Nc2nc(-c3ccc(O)c(C(N)=O)c3)cs2)cc1` [compound 448, 5-(2-(4-- (heptyloxy)phenylamino)thia-zol-4-yl)-2-hydroxybenzamide], for which the EC50 was less than 1 µM. As to `CCCCCOc1ccc(Nc2nc(-c3ccc(Cl)nc3)cs2)cc1C(F)(F)F` [compound 460, 4-(6-chloropyridin-3-yl)-N-(3-(trifluoromethyl)-4-(pentyloxy)phenyl)thiazol-2-amine], the EC50 is less than 1 µM. `CCCCCCCCOc1ccc(Nc2nc(-c3cc4ccccc4o3)cs2)cc1` [compound 389]: the EC50 is less than 1 µM.

As for `CCCCCOc1ccc(Nc2nc(CN3CCC(O)CC3)cs2)cc1F` [compound 291, 1-((2-(3-fluoro-4-(pentyloxy)phenylamino)thia-zol-4-yl)methyl)piperidin-4-ol], the EC50 lay within 1 to 10 µM. Regarding `CCCCCOc1ccc(Nc2nc(-c3cccnc3C)cs2)cc1C(F)(F)F` [compound 441, N-(3-(trifluoromethyl)-4-(pentyloxy)phenyl)-4-(2-methylpyridin-3-yl)thiazol-2-amine], the EC50 is less than 1 µM. On the same count and under the same terms, in the case of `CCCCCOc1ccc(Nc2nc(-c3cccnc3)c(C(=O)OC)s2)cc1C(F)(F)F` [compound 443, methyl 2-(3-(trifluoromethyl)-4-(pentyloxy)phenylamino)-4-(pyridin-3-yl)thiazol-5-carboxylate] it was less than 1 µM; in that of `CCCCCCCCOc1ccc(Nc2nc(-c3ccccc3)cs2)cc1` [compound 327, N-(4-(octyloxy)phenyl)-4-phenylthiazol-2-amine], less than 1 µM. The same measure, in the same setting: in the case of `CCCCCCCCOc1ccc(Nc2nc(CN3C[C@H](O)CC3C(=O)OC)cs2)cc1` (stereo partly drawn) [compound 320, (4R)-methyl 4-hydroxy-1-((2-(4-(octyloxy)pheenylamino)thia-zol-4-yl)methyl)pyrrolidine-2-carboxylate] it was less than 1 µM; in that of `CCCCCOc1ccc(Nc2nc(CN3CCCC(C)C3)cs2)cc1C(F)(F)F` (stereo not drawn) [compound 276, 4-((3-methylpiperidin-1-yl)methyl)-N-(4-(pentyloxy)-3-(trifluoromethyl)phenyl)thia-zol-2-amine], less than 1 µM.

Still in this assay, the particulars now being: Hepatitis C virus, replicon based assay of HCV replication inhibition; Table IV; read-out: Activity.
On to `Cc1cc(OC(F)(F)F)ccc1Nc1nc(-c2cccnc2)cs1` [compound 877, N-(2-methyl-4-(trifluoromethoxy)phenyl)-4-(pyridin-3-yl)thiazol-2-amine], for which the EC50 was more than 10 µM.

Regarding `COc1ncc(-c2csc(Nc3ccc(OCC4CCCCC4)c(C(F)(F)F)c3)n2)c(OC)n1` [compound 767, N-(4-(cyclohexylmethoxy)-3-(trifluoromethyl)phenyl)-4-(2,4-dimethoxypyrimidin-5-yl)thiazol-2-amine], the EC50 is less than 1 µM. With `c1cncc(-c2csc(Nc3nc4ccccc4[nH]3)n2)c1` [compound 791, N-(4-(pyridin-3-yl)thiazol-2-yl)-1H-benzo[d]imidazol-2-amine], the EC50 was more than 10 µM. On the same count and under the same terms, in the case of `Cc1ccc(C#CCCOc2ccc(Nc3nc(-c4cccnc4)cs3)cc2C(F)(F)F)cc1` [compound 948, N-(4-(4-p-tolylbut-3-ynyloxy)-3-(trifluoromethyl)phenyl)-4-(pyridin-3-yl)thiazol-2-amine] it was less than 1 µM; in that of `CCCCCCCCOc1ccc(Nc2nc(-c3ccc(OC)nc3)cs2)cc1C(F)(F)F` [compound 734, N-(3-(trifluoromethyl)-4-(octyloxy)phenyl)-4-(6-methoxypyridin-3-yl)thiazol-2-amine], less than 1 µM. Consider `COc1ncc(-c2csc(Nc3ccc(OCCCC4CCCC4)c(C(F)(F)F)c3)n2)cn1` [compound 803, N-(4-(3-cyclopentylpropoxy)-3-(trifluoromethyl)phenyl)-4-(2-methoxypyrimidin-5-yl)thiazol-2-amine], for which the EC50 is less than 1 µM. On the same count and under the same terms, to `Cc1ccc(CCCCOc2ccc(Nc3nc(-c4cccnc4)c(C)s3)cc2C(F)(F)F)cc1` [compound 845, N-(4-(4-p-tolylbutoxy)-3-(trifluoromethyl)phenyl)-5-methyl-4-(pyridin-3-yl)thiazol-2-amine] belongs less than 1 µM; to `Cc1ccc2nc(Nc3nc(-c4cccnc4)cs3)sc2c1` [compound 794, 6-methyl-N-(4-(pyridin-3-yl)thiazol-2-yl)benzo[d]thiazol-2-amine], more than 10 µM.

Take `CCCCCCCCOc1ccc(Nc2nc(-c3cccnc3)c(C)s2)cc1C(F)(F)F` [compound 836, N-(3-(trifluoromethyl)-4-(octyloxy)phenyl)-5-methyl-4-(pyridin-3-yl)thiazol-2-amine]: the EC50 is less than 1 µM. As for `CCCCCCCCOc1ccc(Nc2nc(-c3ccc(CN)nc3)cs2)cc1C(F)(F)F` [compound 844, 4-(6-(aminomethyl)pyridin-3-yl)-N-(3-(trifluoromethyl)-4-(octyloxy)phenyl)thiazol-2-amine], the EC50 is less than 1 µM.

Consider `O=C1CSc2cc(-c3csc(Nc4ccc(OCC5CCCCC5)c(F)c4)n3)ccc2N1` [compound 727, 7-(2-(4-(cyclohexylmethoxy)-3-fluorophenylamino)thiazol-4-yl)-2H-benzo[b][1,4]thiazin-3(4H)-one], for which the EC50 was 1 to 10 µM.

The values above are taken from patent US8088806B2 (Achillion Pharmaceuticals, Inc., priority 2005, dated 2012).
